Consider one molecule from patent US20240067702A1, “LACTAM-MODIFIED P[…]” (DONGBAO PURPLE STAR (HANGZHOU) BIOPHARMACEUTICAL CO., LTD., priority 2020, published 2024).

The structures appear in SMILES notation. *1 amine or outer side, *2 acyl side, *3 side chain or, on linkers, in order; H or OH if unused. Where a SMILES comes first, the peptide text is derived from it. Bridges are numbered along the chain shown (N, C = ends). Side-chain parts run from the residue outwards. [ ]: non-standard residue; d: D form. The star is where a group is joined. C20 diacid = O=C(O)CCCCCCCCCCCCCCCCCCC(=O)*; γGlu = O=C(O)[C@H](CCC(=O)[*:2])N[*:1]; AEEA = NCCOCCOCC(=O)O; Aib = CC(C)(N)C(=O)O Where only a bound is given, the exact number is not on record here.

In one data set the target is T1, GIPR (Homo sapiens, UniProt P48546).
T1 construct: host or cells: CHO
T1 sequence (P48546 22-466): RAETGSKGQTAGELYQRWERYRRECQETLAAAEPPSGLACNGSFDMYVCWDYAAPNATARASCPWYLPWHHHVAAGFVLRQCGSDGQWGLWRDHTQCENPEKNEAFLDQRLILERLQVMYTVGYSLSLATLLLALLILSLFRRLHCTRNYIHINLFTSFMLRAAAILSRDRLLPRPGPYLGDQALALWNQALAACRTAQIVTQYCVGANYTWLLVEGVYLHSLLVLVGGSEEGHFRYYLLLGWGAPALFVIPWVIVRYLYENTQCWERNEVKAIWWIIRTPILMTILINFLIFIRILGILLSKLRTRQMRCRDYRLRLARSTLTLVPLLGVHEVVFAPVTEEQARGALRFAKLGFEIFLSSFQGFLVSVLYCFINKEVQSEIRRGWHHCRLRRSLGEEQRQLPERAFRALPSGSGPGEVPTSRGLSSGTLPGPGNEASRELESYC
The data set is described as follows: GIPR agonist activity test in vitro (cAMP assay). Format: cell-based. To be noted: CHO host cell. How it is done: (§1) The cell strains were constructed by Shanghai WuXi AppTec.
(§2) The test compound was serially diluted 4-fold with 10 points. The initial concentration was 30 μM, and the dilution was completed with Bravo.
(§3) 1) 100 nL of the compound was transferred to OptiPlate-384 plate using Echo.
(§4) 7) The GLP-1R/GIPR cell concentration was diluted to 2.0*10^5/mL with the experimental buffer.
(§5) 8) […] of the diluted cell suspension was transferred into the OptiPlate-384 plate.
(§6) 9) The diluted cell suspension was incubated at room temperature for 30 minutes.
(§7) 2) 10 μL of cAMP detection reagent was added.
(§8) 3) The OptiPlate-384 plate was covered with TopSeal-A film and incubated at room temperature for 60 minutes.
(§9) TopSeal-A was removed and read in EnVision.

A short description of data set [1]: Plasma stability (PLS) test, mouse plasma. Format: in vitro ADME. Conditions: pH 7.4, 37° C., up to 120 min, read-out: PLS (H/M) T1/2. The procedure: To study the stability of test compounds in the plasma of normal mice.
1. Before the experiment, the coagulated frozen plasma was thawed in a water bath at 37° C. Plasma was centrifuged at 4000 rpm for 5 min. If there was blood clot, the blood clot was removed and the pH value was adjusted to 7.4±0.1.
2. Preparation of the test compound solution: 100 μM of the solution was prepared by dilution with DMSO.
3. 98 μL of blank control plasma was added to 2 μL of the test compound solution (100 μM), so that the final concentration of the mixed solution of the two reached 2 μM, and the mixed solution was placed in a 37° C. water bath for incubation.
4. At each time point (0, 10, 30, 60, and 120 min), 1(X) μL of H3PO4 solution and 800 μL of stop solution (200 ng/mL of tolbutamide and 200 ng/mL of labetalol in 100% methanol solution) were added to precipitate protein, and mixed thoroughly.
5. The samples were centrifuged at 4000 rpm for 20 min, and 1(X) μL of supernatant was taken from each well for LC-MS/MS analysis.

Data set [2] in a line: Kidney homogenate stability (BHS) test. Format: in vitro ADME. To be noted: normal mouse kidney homogenate, 37° C.; read-out: BHS (T1/2 (min)). How it is done:
To study the stability of the test compounds in normal mouse kidney homogenate.
1. Before the experiment, the frozen kidney homogenate was thawed in a 37° C. water bath.
2. Test compounds: 10 mM stock solution was diluted with DMSO to prepare 1 mM intermediate solution;
3. test compounds: 1 mM intermediate solution was diluted with DMSO to prepare 50 μM dosing solution;
4. at each time point (0, 10, 30, 60, 120, 180, 240 min), 100 μL of 4% H3PO4 and 800 μL of stop solution were added to precipitate the protein, and mixed thoroughly.
5. The samples were centrifuged at 4000 rpm for 10 min, and 100 μL of supernatant was taken from each well to the plate. The samples were shaken at 800 rpm for approximately 10 min before submitting for LC-MS/MS test.

The nature of data set [3]: Pharmacokinetic evaluation in SD rats. Format: in vivo. To be noted: rat, plasma, 0.048 mg/kg, single SC 0.048 mpk. The procedure: To test the pharmacokinetics of compounds in SD rats in vivo
The pharmacokinetic characteristics of the compounds in rodents after subcutaneous injection were tested according to the standard protocol. In the experiment, the candidate compounds were formulated into clear solutions, and a single subcutaneous injection (SC, 0.048 mpk) was given to the rats. The injection vehicle was citrate buffer (20 mM, pH=7). Whole blood was collected and prepared to obtain plasma. Drug concentration was analyzed by LC-MS/MS method, and pharmacokinetic parameters were calculated by Phoenix WinNonlin software.

The next data set has as its target T2, GLP-1R (Homo sapiens, UniProt P43220).
T2 construct: host or cells: HEK293
The data set is described as follows: GLP-1R agonist activity test in vitro (cAMP assay). It counts as cell-based. Conditions: HEK293 host cell. How it is done:
as §1, §2, §3, §4, §5, §6, §7, §8, §9

T2 sequence (P43220 24-463): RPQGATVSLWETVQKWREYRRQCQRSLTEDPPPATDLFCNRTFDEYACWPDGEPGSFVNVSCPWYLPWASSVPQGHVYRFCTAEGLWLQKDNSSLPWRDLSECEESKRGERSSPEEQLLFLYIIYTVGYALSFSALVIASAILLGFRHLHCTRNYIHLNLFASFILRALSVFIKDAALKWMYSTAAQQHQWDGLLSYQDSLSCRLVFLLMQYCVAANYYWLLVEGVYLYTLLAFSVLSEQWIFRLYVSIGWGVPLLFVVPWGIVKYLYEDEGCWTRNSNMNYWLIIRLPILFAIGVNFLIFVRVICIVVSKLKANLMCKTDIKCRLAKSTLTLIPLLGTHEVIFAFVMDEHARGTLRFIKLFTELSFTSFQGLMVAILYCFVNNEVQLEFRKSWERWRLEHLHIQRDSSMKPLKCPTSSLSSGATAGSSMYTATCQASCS

Consider `CC[C@H](C)[C@H](NC(=O)[C@H](CC(C)C)NC(=O)[C@H](Cc1c[nH]c2ccccc12)NC(=O)[C@@H]1CCC(=O)NCCCC[C@H](NC(=O)[C@H](CCC(N)=O)NC(=O)[C@H](C)NC(=O)[C@H](CCCCNC(=O)COCCOCCNC(=O)COCCOCCNC(=O)CC[C@H](NC(=O)CCCCCCCCCCCCCCCCCCC(=O)O)C(=O)O)NC(=O)[C@H](CCCCN)NC(=O)[C@H](CC(=O)O)NC(=O)[C@H](CC(C)C)NC(=O)C(C)(C)NC(=O)[C@@H](NC(=O)[C@H](CO)NC(=O)[C@H](Cc2ccc(O)cc2)NC(=O)[C@H](CC(=O)O)NC(=O)[C@H](CO)NC(=O)[C@@H](NC(=O)[C@H](Cc2ccccc2)NC(=O)[C@@H](NC(=O)CNC(=O)[C@H](CCC(=O)O)NC(=O)C(C)(C)NC(=O)[C@@H](N)Cc2ccc(O)cc2)[C@@H](C)O)[C@@H](C)O)[C@@H](C)CC)C(=O)N[C@@H](C)C(=O)N[C@@H](Cc2ccccc2)C(=O)N[C@@H](C(C)C)C(=O)N1)C(=O)N[C@@H](C)C(=O)NCC(=O)NCC(=O)N1CCC[C@H]1C(=O)N[C@@H](CO)C(=O)N[C@@H](CO)C(=O)NCC(=O)N[C@@H](C)C(=O)N1CCC[C@H]1C(=O)N1CCC[C@H]1C(=O)N1CCC[C@H]1C(=O)N[C@@H](CO)C(N)=O` [WX-001] (H-Y[Aib]EGTFTSDYSI[Aib]LDKK([AEEA-AEEA-γGlu-C20 diacid])AQKAFVEWLIAGGPSSGAPPPS-NH2; lactam 20-24), for which the EC50 turned out to be 23 nM on GIPR (GIPR Agonist Activity EC50 (+) 1% HSA, with 1% HSA); 0.44 nM on GIPR (GIPR Agonist Activity EC50 (−) 1% HSA, without 1% HSA); 3.66 nM on GLP-1R (GLP-IR Agonist Activity EC50 (+) 1% HSA, with 1% HSA); 0.014 nM at GLP-1R (GLP-IR Agonist Activity EC50 (−) 1% HSA, without 1% HSA). Besides, in data set [1], the half-life at 2 μM is over 4.82 h. Also, the half-life in data set [2] is 14 min; in data set [3] (read-out: Half-life T1/2 (converted)), 12 h. Moreover, in data set [3] (read-out: Maximum Plasma Concentration), the Cmax worked out at 22 nM. In addition, the AUC(0-t) in data set [3] (read-out: SC Concentration Integral AUC0-72 h) turned out to be 0.728 µM·h.
